Results on 3 compounds are retold here after US10159663B2, “Substituted macrocycles useful as kinases inhibitors and methods of use thereof” (TELIGENE LTD., priority 2014, dated 2018).

For orientation: IC50 means the concentration at which inhibition is half-maximal. The solubility is the dissolved amount per volume that the medium holds.

In brackets after ≈: the same amount, converted by molar mass. Where two headings read alike, the source gives them in different places.

The target of data set [1] is T1, CYP 3A4 (Homo sapiens, UniProt P08684).
T1 construct: Incubation mixtures in duplicate contain pooled human liver microsome (0.1 mg/mL); from tissue; host or cells: pooled human liver microsomes
T1 sequence (P08684 whole entry): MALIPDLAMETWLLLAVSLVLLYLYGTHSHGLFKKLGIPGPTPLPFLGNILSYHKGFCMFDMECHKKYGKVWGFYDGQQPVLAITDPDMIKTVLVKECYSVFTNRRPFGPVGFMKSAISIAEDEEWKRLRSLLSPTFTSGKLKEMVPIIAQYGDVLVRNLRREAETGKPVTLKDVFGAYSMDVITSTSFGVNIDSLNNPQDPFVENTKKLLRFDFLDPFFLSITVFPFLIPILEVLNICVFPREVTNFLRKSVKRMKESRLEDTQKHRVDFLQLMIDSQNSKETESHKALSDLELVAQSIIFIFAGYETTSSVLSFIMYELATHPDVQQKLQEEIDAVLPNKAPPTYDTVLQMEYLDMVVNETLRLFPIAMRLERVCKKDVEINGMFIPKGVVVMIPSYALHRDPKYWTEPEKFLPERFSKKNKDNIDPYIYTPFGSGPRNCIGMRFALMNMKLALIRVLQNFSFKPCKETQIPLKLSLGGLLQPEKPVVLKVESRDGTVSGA
The data set can be described thus: P450 3A4 assay in human liver microsomes. Type of data set: in vitro ADME. Particulars: for IC50: probe substrate testosterone. As for the experimental part:
The final concentrations of DMSO and acetonitrile were equal or less than 0.1%.
The column temperature was maintained at ambient temperature (25° C.). […] The flow rate was maintained at 0.6 mL/min.

Data set [2] is described as follows: Rate of metabolism in rat whole blood. Format: in vitro ADME. Conditions: for rate of metabolism (k) in Rat whole blood: 1.0 μM, 37° C., 0-2 h. As for the experimental part: A Representative Number of Compounds were Tested in Rat Whole Blood to Measure Rate of Metabolism.
Preparation of Stock Solutions: Stock solution of test compound was provided in 100% DMSO. The stock solution for each compound was diluted into 500 μM with a mixture of acetonitrile: PBS buffer (2:8) and then diluted into rat blood (pH 7.4) to achieve a final concentration of 1.0 μM.
Incubation: 1.0 μM of test compound in duplicate was incubated in blood at 37° C. Aliquots of 50 μL sample were collected at 0 h, 0.25 h, 0.5 h, 1 h, and 2 h.
Sample preparation: Reactions were terminated at various time points (0, 0.25, 0.5, 1, 2 h) by adding 150 μL of ice-cold acetonitrile containing an internal standard. Centrifuge the plate (4000 rpm, 15 min). 100 μL of supernatants were transferred into a daughter plate containing 200 μL of H2O and 0.1% formic acid (v/v) in each well. The samples were analyzed with UPLC-MS/MS.
Data analysis: The peak area ratio of test compound to internal standard is plotted as a percentage of the relevant zero time point control (% Remained) for each reaction. The rate of metabolism (k) is the slope of the linear regression from log percentage remaining versus incubation time. The T½ is calculated as −0.693/k.

A short description of data set [3]: Solubility measurement (HPLC). Format: physicochemical. Particulars: for solubility at 30 min: aqueous buffer, thermodynamic from solid, 25° C. The method, then:
The compound was diluted with acetonitrile to 100 mL.
The solution was shook for 2 minutes and left for 30 minutes at 25° C. After standing for 30 minutes, precipitate was formed in the bottom of the EP. The solutions was filtered through 0.2 μm membrane filter, and then diluted by 50 times with water.
The standard and sample solutions were injected into the HPLC on a Shim-Pack CLC-ODS C18 column (150 mm×6.0 mm, 5 um) with the same volume. The mobile phase consisted of acetonitrile with 2% trichloromethane-20 mM KH2PO4 buffer (pH=7.0) at a flow rate of 1 mL/minutes (40:60). The detection wavelength is at 264 nm. Calculation: solubility of sample=the concentration of standard×Area of sample×50/Area of standard.

Data set [4] deals with T2, EGFR(L747-E749del, A750P) (Homo sapiens, UniProt P00533, A750P/DEL747-749).
T2 construct: made in house; host or cells: E. coli BL21-derived host (T7 phage) or HEK-293 cells
T2 sequence (P00533 with tags, fused parts or gaps DEL747-749/A750P): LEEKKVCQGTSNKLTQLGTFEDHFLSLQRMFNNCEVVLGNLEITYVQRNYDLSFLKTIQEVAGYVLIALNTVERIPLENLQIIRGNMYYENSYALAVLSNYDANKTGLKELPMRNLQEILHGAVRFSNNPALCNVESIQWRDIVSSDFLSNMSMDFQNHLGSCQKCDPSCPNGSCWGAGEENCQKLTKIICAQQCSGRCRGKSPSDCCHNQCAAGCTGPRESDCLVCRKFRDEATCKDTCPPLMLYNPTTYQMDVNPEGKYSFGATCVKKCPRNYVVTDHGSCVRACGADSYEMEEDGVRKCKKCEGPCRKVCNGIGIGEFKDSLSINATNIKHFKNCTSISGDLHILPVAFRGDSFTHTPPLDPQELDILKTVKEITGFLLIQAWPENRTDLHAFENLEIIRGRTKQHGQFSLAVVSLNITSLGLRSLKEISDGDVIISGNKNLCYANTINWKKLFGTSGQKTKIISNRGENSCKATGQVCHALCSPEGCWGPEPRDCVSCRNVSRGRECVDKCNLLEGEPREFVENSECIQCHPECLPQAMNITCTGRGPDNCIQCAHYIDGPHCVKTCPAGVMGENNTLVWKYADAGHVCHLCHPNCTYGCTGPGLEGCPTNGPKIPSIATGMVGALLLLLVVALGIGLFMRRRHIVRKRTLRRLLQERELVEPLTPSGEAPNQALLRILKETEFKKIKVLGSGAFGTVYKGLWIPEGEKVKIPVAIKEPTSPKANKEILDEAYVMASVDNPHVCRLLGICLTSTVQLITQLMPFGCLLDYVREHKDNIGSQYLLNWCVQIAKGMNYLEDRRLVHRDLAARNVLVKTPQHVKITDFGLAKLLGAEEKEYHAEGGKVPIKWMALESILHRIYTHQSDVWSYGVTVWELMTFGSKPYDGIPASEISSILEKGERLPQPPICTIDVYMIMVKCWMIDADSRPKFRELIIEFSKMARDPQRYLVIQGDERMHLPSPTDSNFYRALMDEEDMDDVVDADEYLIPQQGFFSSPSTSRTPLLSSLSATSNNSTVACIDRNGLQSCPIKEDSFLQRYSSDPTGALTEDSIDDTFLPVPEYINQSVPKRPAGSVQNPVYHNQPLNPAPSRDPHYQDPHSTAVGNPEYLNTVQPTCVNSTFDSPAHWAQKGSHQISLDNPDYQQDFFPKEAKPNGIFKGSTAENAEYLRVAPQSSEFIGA
The data set can be described thus: In vitro kinase assay (kinase-tagged phage, affinity beads, qPCR). Format: binding. The method, then:
(§1) An In Vitro Assay which Determines the Ability of a Test Compound to Inhibit Kinase:
(§2) Kinase-tagged T7 phage strains were prepared in an E. coli host derived from the BL21 strain. E. coli were grown to log-phase and infected with T7 phage and incubated with shaking at 32° C. until lysis. The lysates were centrifuged and filtered to remove cell debris. The remaining kinases were produced in HEK-293 cells and subsequently tagged with DNA for qPCR detection. Streptavidin-coated magnetic beads were treated with biotinylated small molecule ligands for 30 minutes at room temperature to generate affinity resins for kinase assays. The liganded beads were blocked with excess biotin and washed with blocking buffer (SeaBlock (Pierce), 1% BSA, 0.05% Tween 20, 1 mM DTT) to remove unbound ligand and to reduce non-specific binding. […] All reactions were performed in polystyrene 96-well plates in a final volume of 0.135 ml. […] The kinase concentration in the eluates was measured by qPCR.
On the technique in general: In qPCR the cycle at which signal appears reflects the starting amount.

Data set [5] concerns the target T3, ERBB4 (Homo sapiens, UniProt Q15303).
T3 construct: made in house; host or cells: E. coli BL21-derived host (T7 phage) or HEK-293 cells
The data set is described as above. Format: binding. Conditions: Table A. As for the experimental part:
as §1, §2

Data set [6] concerns HCC827 Cell. The data set can be described thus: Cell proliferation assay (MTT). Type of data set: cell-based. Conditions: Homo sapiens, 72 hours treatment. As for the experimental part:
(§3) A Representative Number of Compounds were Assayed Against Different Cancer Cell Lines Such as HCC827 and NCI-H69 Using the Cell Proliferation Assays:
(§4) Cell Proliferation Assays:
(§5) 1. 5×10^3 cells per well in 100 μl of medium were seeded in 96-well plate, while the medium here contained 5% FBS.
(§6) 2. 24 hours later, 100 μl fresh medium was added with various concentrations of compounds into each well, while the medium here was free of FBS.
(§7) 3. After the cells were treated with compounds for 72 hours, 20 μl MTT (5 mg/ml) was added into each well, and then the assay plate was incubated at 37° C. for 4 more hours.
(§8) 4. The assay plate was centrifuged at 800 g for 10 min. The medium was aspirated, 150 μl DMSO was added into each well. The plate was gently shaken for 10 min.
(§9) 5. The absorbance at 570 nm was measured on the plate reader.

The subject of data set [7] is NCI-H69 Cell. The data set can be described thus: Cell proliferation assay (MTT). Conditions: Homo sapiens, 72 hours treatment. Format: cell-based. The method, then:
as §3, §4, §5, §6, §7, §8, §9

Where [8] appears, read: pH 7.0 buffer solution (20 mM), pH 7.0 buffer (20 mM), read-out: Solubility at pH 7.0.
The mark [9] stands for this setting: pH 10.0 buffer solution (20 mM), pH 10.0 buffer (20 mM), read-out: Solubility at pH 10.0.

T3 sequence (Q15303 26-1308): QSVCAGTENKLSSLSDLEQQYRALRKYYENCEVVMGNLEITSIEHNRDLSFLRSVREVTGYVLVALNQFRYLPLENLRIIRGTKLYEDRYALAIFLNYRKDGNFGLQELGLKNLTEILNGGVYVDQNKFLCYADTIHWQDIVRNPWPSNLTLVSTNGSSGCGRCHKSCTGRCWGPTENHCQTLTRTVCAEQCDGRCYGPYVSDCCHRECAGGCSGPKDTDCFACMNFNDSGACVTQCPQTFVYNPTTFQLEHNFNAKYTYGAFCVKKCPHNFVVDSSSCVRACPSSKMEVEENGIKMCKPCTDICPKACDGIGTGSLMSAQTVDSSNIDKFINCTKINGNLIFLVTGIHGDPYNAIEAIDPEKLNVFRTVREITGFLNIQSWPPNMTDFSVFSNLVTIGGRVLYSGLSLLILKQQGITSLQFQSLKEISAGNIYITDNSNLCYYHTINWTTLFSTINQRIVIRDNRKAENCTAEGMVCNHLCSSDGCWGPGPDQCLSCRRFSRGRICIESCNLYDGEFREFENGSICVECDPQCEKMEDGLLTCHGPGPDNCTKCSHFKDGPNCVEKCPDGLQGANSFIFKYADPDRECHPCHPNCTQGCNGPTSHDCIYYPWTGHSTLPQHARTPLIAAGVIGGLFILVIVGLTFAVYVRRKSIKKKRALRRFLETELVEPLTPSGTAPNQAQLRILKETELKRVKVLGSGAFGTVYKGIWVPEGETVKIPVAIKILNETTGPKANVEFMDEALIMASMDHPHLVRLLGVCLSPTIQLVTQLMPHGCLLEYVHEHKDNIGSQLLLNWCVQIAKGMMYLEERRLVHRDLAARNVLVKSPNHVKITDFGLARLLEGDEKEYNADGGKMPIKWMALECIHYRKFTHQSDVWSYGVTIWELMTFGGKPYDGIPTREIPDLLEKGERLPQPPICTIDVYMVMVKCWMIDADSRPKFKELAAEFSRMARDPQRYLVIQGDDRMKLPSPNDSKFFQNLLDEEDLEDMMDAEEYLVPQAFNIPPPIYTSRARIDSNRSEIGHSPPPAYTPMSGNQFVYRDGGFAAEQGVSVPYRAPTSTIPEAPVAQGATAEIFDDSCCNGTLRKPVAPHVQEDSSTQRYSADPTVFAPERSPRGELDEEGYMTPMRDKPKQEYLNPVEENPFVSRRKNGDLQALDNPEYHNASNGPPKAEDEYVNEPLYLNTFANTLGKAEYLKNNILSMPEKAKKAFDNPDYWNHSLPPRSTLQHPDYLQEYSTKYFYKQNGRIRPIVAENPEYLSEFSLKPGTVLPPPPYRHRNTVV

In data set [1], `CC(=O)Nc1ncc2cc1O[C@H](C)c1cc(F)ccc1C(=O)N(C)Cc1nn(C)c(C#N)c1-2` [Compound 10, (10R)-7-acetamido-12-fluoro-2,10,16-trimethyl-15-oxo-10,15,16,17-tetrahydro-2H-8,4-(metheno)pyrazolo[4,3-h][2,5,11]-benzoxadiazacyclotetradecine-3-carbonitrile] yielded an IC50 of 14 µM. Further, in data set [2], the “rate of metabolism (k) in Rat whole blood” value (from here on “rate of metabolism (k)”) is 0.07435.

In the case of `C[C@H]1Oc2cc(cnc2N)-c2c(nn(C)c2C#N)CN(C)C(=O)c2ccc(F)cc21` [Compound A, (10R)-7-amino-12-fluoro-2,10,16-trimethyl-15-oxo-10,15,16,17-tetrahydro-2H-8,4-(metheno)pyrazolo[4,3-h][2,5,11]-benzoxadiazacyclotetradecine-3-carbonitrile, reference compound], the “Cytochrome P450 3A4 inhibition (DDI risk class)” value in data set [1] is “moderate (3 μM<IC50<10 μM CYP inhibition moderate)”. The “rate of metabolism (k)” value in data set [2] is listed as −0.07473. The figures for the solubility at 30 min in data set [3] (setting [8]) and in data set [3] (setting [9]) were 29 µg/mL (≈ 71.4 µM) and 28 µg/mL (≈ 68.9 µM), respectively.

Consider `C[C@H]1Oc2cc(cnc2NC(=O)CN)-c2c(nn(C)c2C#N)CN(C)C(=O)c2ccc(F)cc21` [Compound 6, (10R)-7-(2-aminoacetyl)amino-12-fluoro-2,10,16-trimethyl-15-oxo-10,15,16,17-tetrahydro-2H-8,4-(metheno)pyrazolo[4,3-h][2,5,11]-benzoxadiazacyclotetradecine-3-carbonitrile], for which the “inhibitor potency for mutant EGFR (L747-E749del, A750P)” value in data set [4] is 0.42 µM. In data set [4] (mutant EGFR, Table A), the “Kinase Inhibition EGFR(L747-E749del, A750P)” value worked out at 0.4 µM. For the same compound, in data set [5], the “Kinase Inhibition ERBB4” value amounted to 5.7 µM. Besides, the IC50 in data set [6] came to 65.6 µM; in data set [7] it was 77.1 µM; in data set [1] it was 10 µM. The “rate of metabolism (k)” value in data set [2] is on record as 0.6169. Moreover, in data set [2] (rat whole blood, comparison in words), the “K value compared with PF-06463922 and Compound 10” value is on record as “much larger K value”. Further, the “solubility compared with compound A at pH=7.0” value in data set [3] (pH 7.0, comparison in words) was “much higher solubility”. The solubility at 30 min in data set [3] (setting [8]) came out at 91 µg/mL (≈ 196 µM); in data set [3] (setting [9]) it was 36 µg/mL (≈ 77.7 µM).
